The values below come from patent publication US7410975B2, “Small molecule toll-like receptor (TLR) antagonists” (Coley Pharmaceutical Group, Inc., priority 2003, dated 2008).

The target of this test is T1, human TLR3 (hTLR3) (Homo sapiens, UniProt O15455).
T1 construct: expressed in transfected cells
T1 sequence (O15455 24-904): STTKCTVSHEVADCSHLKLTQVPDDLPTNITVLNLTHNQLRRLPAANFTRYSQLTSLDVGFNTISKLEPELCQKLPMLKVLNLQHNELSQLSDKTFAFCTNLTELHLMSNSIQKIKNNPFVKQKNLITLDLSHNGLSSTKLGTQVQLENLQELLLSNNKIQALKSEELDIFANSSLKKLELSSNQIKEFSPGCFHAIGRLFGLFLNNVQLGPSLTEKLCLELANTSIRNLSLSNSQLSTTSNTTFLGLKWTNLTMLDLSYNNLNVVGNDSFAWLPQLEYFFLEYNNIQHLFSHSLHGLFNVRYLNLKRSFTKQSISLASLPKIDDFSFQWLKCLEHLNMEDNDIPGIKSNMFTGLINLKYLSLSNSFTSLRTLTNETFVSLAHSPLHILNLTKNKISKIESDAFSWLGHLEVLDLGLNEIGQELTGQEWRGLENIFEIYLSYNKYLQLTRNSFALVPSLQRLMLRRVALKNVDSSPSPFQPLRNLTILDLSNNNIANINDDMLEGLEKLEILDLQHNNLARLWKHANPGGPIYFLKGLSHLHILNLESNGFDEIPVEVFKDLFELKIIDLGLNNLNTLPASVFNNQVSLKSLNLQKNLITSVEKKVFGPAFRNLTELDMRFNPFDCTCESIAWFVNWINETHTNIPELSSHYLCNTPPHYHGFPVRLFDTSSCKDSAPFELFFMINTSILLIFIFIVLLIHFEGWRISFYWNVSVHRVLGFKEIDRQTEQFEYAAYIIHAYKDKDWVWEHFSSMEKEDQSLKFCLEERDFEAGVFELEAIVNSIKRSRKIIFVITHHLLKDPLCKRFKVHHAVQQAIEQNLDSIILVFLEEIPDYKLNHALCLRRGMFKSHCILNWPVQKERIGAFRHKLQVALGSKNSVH
Kind of test: Antagonist screen, hTLR3-NFκB-293 cells, NF-κB-luciferase reporter, with EC50 of poly(I:C). The following applies: compound at 0.5, 5, 50 μg/ml; EC50 concentration of poly(I:C); 16 h; NF-κB-luciferase. It counts as cell-based. The procedure: The method is described in greater detail as follows. The cells for each individual cell clone (hTLR3-NFκB-293, hTLR7-NFκB-293, hTLR8-NFκB-293 and hTLR9-NFκB-293) were counted and seeded one day before the stimulation at 1.5×10^4 cells per well in 96-well cell culture plates. To become adherent the cells were incubated after seeding overnight at 37° C. in 5% CO2 humidified air.
The screen for each compound was performed at the same time for all of the receptors TLR3, TLR7, TLR8 and TLR9. Up to fifteen test compounds, each assayed in duplicate at each of three different final concentrations (0.5 μg/ml, 5 μg/ml, and 50 μg/ml), were used for 16 h cell stimulation on a single multiwell culture plate. A 4× final concentration master plate was created to prepare the different test compounds before they were added to the cells.
Controls were added as duplicates individually for each cell clone on the cell culture plate. Positive controls were used as follows (final concentrations): 50 μg/ml poly(I:C) for hTLR3-NFκB-293; 8 μM resiquimod (R848) for hTLR7-NFκB-293; 30 μM R848 for hTLR8-NFκB-293; and 2.5 μM CpG-ODN 2006 for hTLR9-NFκB-293. Media alone was used as negative control. After addition of controls and small molecules, the cell clones were additionally stimulated with the EC50 concentration of the appropriate receptor-specific ligand.
The mean value of wells H2 and H5 (each with cells and EC50 concentration of the appropriate receptor-specific ligand) divided by the mean of wells H3 and H6 (each with cells alone) yielded the baseline response (i.e., fold induction of luciferase activity) to EC50 concentration of the appropriate receptor-specific ligand.
After 16 h stimulation the supernatant was removed and the cells treated with lysis buffer and stored at −80° C. before measuring.
For each screen result a graphical documentation was performed.
The baseline result (measured with addition of the EC50 concentration of the receptor-specific ligand) for each cell culture plate was measured as described above. Antagonistic effects were measured by down regulation compared to the baseline. Antagonists were scored as follows: • 13: compounds for which there was clear down regulation at 0.5 μg/ml, 5 μg/ml, and 50 μg/ml; • 12: compounds for which there was clear down regulation at 5 μg/ml and 50 μg/ml; • 11: compounds for which there was clear down regulation only at 50 μg/ml; • —: compounds for which there was no clear down regulation even at 50 μg/ml. Agonists
Results were expressed as fold induction over baseline luciferase activity measured in the absence of poly(I:C). […] Additional screening was performed in like manner using additional small molecules selected from another library or specifically prepared for this purpose. Scoring is reported as above but as applied to TLR3.
(Reporter assays use an easily measured gene product as a stand-in for the process of interest.)
With `CS(=O)(=O)O.OC(CCN1CCCCC1)(c1ccccc1)c1ccccc1` [compound 799, Pridinolmethanesulfonate salt], the “hTLR3 (inhibitory effect, antagonist score)” value is on record as “— (compounds for which there was no clear down regulation even at 50 μg/ml)”.

Consider `Cc1cccc(C2(c3cccc(C)c3)OC(=O)c3ccccc32)c1` [compound 1308], for which the “hTLR3 (inhibitory effect, antagonist score)” value was 12 (compounds for which there was clear down regulation at 5 μg/ml and 50 μg/ml).

With `OCc1cc2c(cn1)[nH]c1ccccc12` [compound 878, 3-hydroxymethyl-beta-carboline], the “hTLR3 (inhibitory effect, antagonist score)” value is recorded as “— (compounds for which there was no clear down regulation even at 50 μg/ml)”.

With `CN1CCC(OC(c2ccccc2)c2ccccc2)CC1.Cl` [compound 707, Diphenylpyralinehydrochloride], the “hTLR3 (inhibitory effect, antagonist score)” value is “— (compounds for which there was no clear down regulation even at 50 μg/ml)”.

Regarding `CN1Cc2c(N)cccc2C(c2ccccc2)C1.O=C(O)/C=C\C(=O)O` (stereo not shown) [compound 108, Nomifensine maleate], the “hTLR3 (inhibitory effect, antagonist score)” value is “— (compounds for which there was no clear down regulation even at 50 μg/ml)”.

In the case of `NC(=O)c1cc(N)c2c(c1N)C(=O)c1ccccc1C2=O` [compound 1158], the “hTLR3 (inhibitory effect, antagonist score)” value was “— (compounds for which there was no clear down regulation even at 50 μg/ml)”.

With `Cl.Clc1ccc(C(OCCN2CCCCC2)c2ccccc2)cc1` (stereo not shown) [compound 793, Cloperastinehydrochloride], the “hTLR3 (inhibitory effect, antagonist score)” value is recorded as 11 (compounds for which there was clear down regulation only at 50 μg/ml).

For `CC(NCCC(c1ccccc1)c1ccccc1)c1ccccc1.Cl` (stereo not shown) [compound 270, Fendiline hydrochloride], the “hTLR3 (inhibitory effect, antagonist score)” value is on record as 11 (compounds for which there was clear down regulation only at 50 μg/ml).

As for `CN(C)CCCN1c2ccccc2Sc2ccc(Cl)cc21.Cl` [compound 64, Chlorpromazinehydrochloride], the “hTLR3 (inhibitory effect, antagonist score)” value is on record as 11 (compounds for which there was clear down regulation only at 50 μg/ml).

Consider `O=C1Nc2ccccc2Oc2ccc([N+](=O)[O-])cc21` [compound 1352], for which the “hTLR3 (inhibitory effect, antagonist score)” value is given as “— (compounds for which there was no clear down regulation even at 50 μg/ml)”.

For `CC(=O)c1ccc2c(c1)N(CCCN(C)C)c1ccccc1S2.O=C(O)/C=C\C(=O)O` [compound 576, Acetopromazinemaleate salt], the “hTLR3 (inhibitory effect, antagonist score)” value was 11 (compounds for which there was clear down regulation only at 50 μg/ml).

For the compound `COc1ccc2c(c1)N(CC(C)CN(C)C)c1ccccc1S2.O=C(O)/C=C\C(=O)O` (stereo not shown) [compound 797, Methotrimeprazinemaleat salt], the “hTLR3 (inhibitory effect, antagonist score)” value was 11 (compounds for which there was clear down regulation only at 50 μg/ml).

As for `CNCCCN1c2ccccc2CCc2ccccc21.Cl` [compound 343, Desipraminehydrochloride], the “hTLR3 (inhibitory effect, antagonist score)” value is given as 11 (compounds for which there was clear down regulation only at 50 μg/ml).

Turning to `Clc1ccccc1C(c1ccccc1)(c1ccccc1)n1ccnc1` [compound 267, Clotrimazole], the “hTLR3 (inhibitory effect, antagonist score)” value is recorded as “— (compounds for which there was no clear down regulation even at 50 μg/ml)”.

For `CCCCOC(=O)c1cc([N+](=O)[O-])cc2c1-c1cc(CO)c([NH+]([O-])O)cc1C2=C(C#N)C#N` (stereo not shown) [compound 939], the “hTLR3 (inhibitory effect, antagonist score)” value is given as 11 (compounds for which there was clear down regulation only at 50 μg/ml).

For `CN(C)CC/C=C1/c2ccccc2Sc2ccc(Cl)cc21.Cl` [compound 348, Chlorprothixenehydrochloride], the “hTLR3 (inhibitory effect, antagonist score)” value is on record as 11 (compounds for which there was clear down regulation only at 50 μg/ml).

Turning to `COC(=O)C1=CO[C@@H](C)[C@@H]2CN3CCc4c([nH]c5ccccc45)[C@@H]3C[C@H]12` [compound 593, Tetrahydroalstonine], the “hTLR3 (inhibitory effect, antagonist score)” value is “— (compounds for which there was no clear down regulation even at 50 μg/ml)”.

As for `Cc1c2ccncc2c(C)c2c1[nH]c1ccccc12` [compound 614, Ellipticine], the “hTLR3 (inhibitory effect, antagonist score)” value was 12 (compounds for which there was clear down regulation at 5 μg/ml and 50 μg/ml).

With `COc1ccc2[nH]c3c(c2c1)CCN=C3C` [compound 621, Methoxy-6-harmalan], the “hTLR3 (inhibitory effect, antagonist score)” value is “— (compounds for which there was no clear down regulation even at 50 μg/ml)”.
